Test results: patent US8957114B2, “Formulations, salts and polymorphs of transnorsertraline and uses thereof” (Sunovion Pharmaceuticals Inc., priority 2009, dated 2015)
Read-outs that look alike come from different tables or passages of the source. Marks after values point to notes of the source that are not given here.

Columns and labels:
[1] = Stability of isolated degradants of formula (III) fractions; format: physicochemical; conditions: for compound converted: in the presence of NH4OAc, after 24 hours; for stability of freshly isolated fractions: without NH4OAc, a few days at room temperature
Description: Degradation products of active were isolated using semi-preparative HPLC (Zorbax SB-SN, 5 um, 9.2×250 mm; 20% ACN/H2O with 0.1% formic acid as mobile phase, 4 mL/min) with the aforementioned open dish degradation sample. Fractions containing these impurities were neutralized with 0.1 M NH4OAc before drying under vacuum to prevent possible decomposition.
Impurities 3 and 4 share the same molecular weight of 323 with almost identical MS fragmentation pattern. After the isolation and drying process, it was noticed that impurities 3 and 4 were converted to impurities 1 and 2 respectively (by HPLC retention time, MS data and ^1H NMR spectrum).
However, in the presence of NH4OAc, almost 50% of the compounds were converted after 24 hours. Furthermore, it was observed that upon drying under vacuum, Degradants III-c and III-d were converted to Degradants III-a and III-b independent of the presence of NH4OAc. Because the molecular formula difference between Degradants III-c and III-a was one oxygen atom as measured by HR-MS, it was concluded that Degradants […] and III-d were a diasteromeric pair of 4-hydroperoxy transnorsertraline. The conversions from impurity 3 and Degradant III-d to Degradants III-a and III-b may be by a decomposition process of hydroperoxides.

[2] = Stability of transnorsertraline HCl blends with mannitol lots containing mannose, amount of degradant II (open dish 30° C./65% RH, HPLC); format: physicochemical
Text: The amount of conjugate degradant leveled off at about two weeks and then slightly declined as stress time increases. Formation of the degradant of formula II also depends on the temperature.
The amount of mannose in mannitol appeared to be the controlling factor, not the type of mannitol used in transnorsertraline HCl formulation (i.e., crystalline vs. spray dried). This was later confirmed from the results obtained using recrystallized mannitol samples spiked with mannose in the stability study of transnorsertraline HCl formulations.
Three recrystallized mannitol lots spiked with mannose were selected for further study based on their % mannose values. Crystalline mannitol and spray dried mannitol were used as controls. The recrystallized spray dried mannitol lot was also used in the study to determine whether the type of mannitol used (crystalline vs. spray dried) was significant. Transnorsertraline HCl blends were made using the selected mannitol lots and placed at 30° C./65% RH under open dish conditions and analyzed initially and then at 2, 4 and 6 weeks using HPLC.

[3] = Solubility of transnorsertraline salts in de-ionized water (HPLC); conditions: saturated solution in de-ionized water
Description: For each salt, saturated solutions with excess solids in deionized water were prepared in 20 mL clear glass scintillation vials with screw caps. All samples were shaken at 300 rpm at ambient conditions for up to nine days until equilibrium was achieved. Solubility was determined using a HPLC method (Table 5).

[4] = Thermal gravimetric analysis (TGA) weight loss; format: physicochemical; conditions: heated 25° C. to 325° C. at 10° C./min
Description: (§1) The sixteen salts of transnorsertraline of Example 6.14 were analyzed for moisture content and hygroscopicity. Each salt was analyzed by coulometric titration using an EM Scientific Aquastar C3000 titrator to determine water content. Sample size ranged from 18 mg to 134 mg. Each salt was analyzed using a Perkin Elmer TGA 7 Thermal Gravimetric Analyzer (TGA). […] Moisture sorption isotherms for each salt were generated using the VTI SGA-100 Symmetric Vapor Sorption Analyzer. Samples were run as received without pre-analysis drying. Equilibrium criteria were the lesser of 0.01 wt % change in 5 minutes or 180 minutes at each relative humidity (RH) step. Temperature was fixed at 25° C. and the relative humidity steps (25 to 95% to 25%) were in 5% increments. Analysis was repeated for each sample in consecutive analyses (sample was not removed from analyzer). Sample sizes ranged from 18 mg to 35 mg.

[5] = VTI moisture sorption isotherm (hygroscopicity); format: physicochemical; conditions: for VTI Adsorp. (% wt gain 25 to 95% RH) / VTI Desorp. (% wt loss 95 to 25% RH): 25° C.
Description: as §1, with “Each” for “The sixteen salts of transnorsertraline of Example 6.14 were analyzed for moisture content and hygroscopicity. Each”, “Sample size ranged from 18 mg to 134 mg.” left out, “Temperature was fixed at 25° C. and the relative humidity steps (25 to 95% to 25%) were in 5% increments.” left out

[6] = Solubility of transnorsertraline salts in aqueous buffer systems (SGF, acetate buffer pH 4.5, SIF; HPLC); format: physicochemical
Description: Saturated solutions with excess solids were prepared in 20 mL clear glass scintillation vials. Simulated gastric fluid (pH 1.0, ˜0.1N HCl, 0.03M NaCl, no enzymes), simulated intestinal fluid (pH 6.8, 0.05M KH2PO4, ˜0.02N NaOH, no enzymes), and acetate buffer (pH 4.5, 0.02M sodium acetate, 0.03M acetic acid) were prepared in accordance with USP28 (USP28 Test Solutions p2855, Volumetric Solutions p2863). […] Solubility was determined using a HPLC method.

[7] = Moisture content by coulometric Karl Fischer titration (KF); format: physicochemical
Description: as §1, with “Each” for “The sixteen salts of transnorsertraline of Example 6.14 were analyzed for moisture content and hygroscopicity. Each”, “Sample size ranged from 18 mg to 134 mg.” left out, “Temperature was fixed at 25° C. and the relative humidity steps (25 to 95% to 25%) were in 5% increments.” left out

[8] = Polymorphic conversion of anhydrous transnorsertraline hydrochloride to hydrate in aqueous media, in-situ Raman monitoring; format: physicochemical
Description: The study of the conversion of anhydrous transnorsertraline hydrochloride to the hydrate form in aqueous media was investigated, using in-situ Raman monitoring.
Raman spectroscopy was performed using a Kaiser Optical Systems Inc. dispersive RamanRXN3 for on-line or in-situ reaction monitoring. The RamanRXN3 system uses an excitation wavelength of 785 nm, with an external cavity-stabilized, diode laser. All spectra were acquired using a ¼″ immersion probe with approximately 100 mW of laser power at the tip of the probe. Different exposure times and numbers of spectrum accumulations were used for the analysis of the two dry samples. An exposure time of 4 seconds with 2 accumulations was used for the monitoring of all form conversions experiments. Wavelength and laser wavelength calibration were performed using an internal neon standard, and diamond Raman shift standard, respectively. The intensity calibration was performed using a Kaiser Raman calibration accessory.
Regions 660-715 cm^−1 and 1430-1490 cm^−1 in particular show little overlapping of the peaks characteristic of each form. Experimental results confirmed that no peaks in the regions […] and 1430-1490 cm^−1 were likely to overlap with peaks of interest to follow the conversion between the two crystalline forms of transnorsertraline hydrochloride.
The conversion of anhydrous transnorsertraline hydrochloride to the monohydrate form was monitored in water. […] Based on the peak intensity ratio I(677 cm^−1)/I(695 cm^−1), an induction time of approximately 1.1 hour was seen before the beginning of the conversion. The end of the conversion was estimated at approximately 2 hours from the beginning of the slurry. […] XRPD analysis of the solids collected at the end of the Raman monitoring of the conversion (after approximately 2 h 10 min) was consistent with the hydrate form, with a small amount of anhydrous form detectable. […] Additionally, the Raman limit of detection of the anhydrous form in the mixture was not estimated.
The conversion of anhydrous transnorsertraline hydrochloride to the hydrate form in water, simulated gastric fluid (SGF) and simulated intestinal fluid (SIF) without enzymes, and 0.1N HCl was monitored at 37° C.
Overall, similar results were obtained in water and simulated gastric fluid, with the start of the form conversion detected at approximately 1.3 hours, with a slightly faster conversion in simulated gastric fluid compared to water. The complete conversion was estimated to occur within 3 to 4 hours in the two media. […] XPRD analysis of the solids collected at the end of each experiments were consistent with the hydrate form, with or without some anhydrous form present. The small amount of anhydrous form may be due to residual solids on the walls of the vessel at the time of the slurry.

[9] = Solid stability of transnorsertraline salts (HPLC impurities); format: physicochemical; conditions: HDPE container
Description: Salts of transnorsertraline were tested for solid stability under various conditions. Solid samples of the HCl salt were placed in double-polyehylene lined high density polyethylene (HDPE) containers closed with HDPE lids and stored at 25° C./60% relative humidity or 40° C./75% relative humidity. Samples were analyzed by HPLC.

[10] = first analysis, listed as L-malate lot 1
[11] = first analysis, listed as L-malate lot 2
[12] = first analysis, listed as L-malate lot 3
[13] = repeated consecutive analysis (second line)
[14] = saturated solution in 0.05M Acetate Buffer (pH 4.5)
[15] = saturated solution in Simulated Gastric Fluid
[16] = saturated solution in Simulated Intestinal Fluid
[17] = SIF without enzymes, 37° C., large scale
[18] = SIF without enzymes, 37° C., larger scale
[19] = SIF without enzymes, 37° C., small scale

compound converted [1] [%]	stability of freshly isolated fractions [1]	pH [3]	TGA (% wt loss) [4] [% wt loss]	VTI Adsorp. (% wt gain 25 to 95% RH) ([5]; first analysis) [% wt gain]	VTI Desorp. (% wt loss 95 to 25% RH) ([5]; first analysis) [% wt loss]	VTI Adsorp. (% wt gain 25 to 95% RH) [5, 13] [% wt gain]	VTI Desorp. (% wt loss 95 to 25% RH) [5, 13] [% wt loss]	Solubility in Freebase Equivalents mgA/mL ([6]; pH 4.5)	Solubility in Freebase Equivalents mgA/mL ([6]; pH 6.8) [mgA/mL]	pH [6, 14]	pH [6, 15]	pH [6, 16]	Initial KF (% H2O) [7] [% H2O]	form conversion completed ([8]; 0.1N HCl, 37° C.)	form conversion completed ([8]; SGF without enzymes, 37° C.) [h]	start of form conversion to hydrate ([8]; SGF without enzymes, 37° C.)	end of form conversion [8, 17] [h]	start of form conversion to hydrate [8, 18] [h]	end of form conversion [8, 19]	further results	Compound
~50	relatively stable																				N[C@@H]1CCC(OO)(c2ccc(Cl)c(Cl)c2)c2ccccc21 (single isomer, unassigned) [Degradant-III-c, 4-hydroperoxy transnorsertraline]
~50	relatively stable																				N[C@@H]1CCC(OO)(c2ccc(Cl)c(Cl)c2)c2ccccc21 (single isomer, unassigned) [III-d, 4-hydroperoxy transnorsertraline]
																				behaviour of degradant at higher temperature [2]: underwent decomposition	OCC1OC(NC2CCC(c3ccc(Cl)c(Cl)c3)c3ccccc32)C(O)C(O)C1O (stereo not shown) [degradant of formula II]
		4.15	0.07	0.08	0.08	0.06	0.06	1.59^b mgA/mL	0.38	4.42	1.15	6.68	0.05							TGA (% wt loss) ([4]; listed as L-malate lot 1): 0.08 % wt loss; VTI Adsorp. (% wt gain 25 to 95% RH) [5, 10]: 0.08 % wt gain; VTI Desorp. (% wt loss 95 to 25% RH) [5, 10]: 0.08 % wt loss; VTI Adsorp. (% wt gain 25 to 95% RH) [5, 11]: 0.06 % wt gain; VTI Desorp. (% wt loss 95 to 25% RH) [5, 11]: 0.07 % wt loss; VTI Adsorp. (% wt gain 25 to 95% RH) [5, 12]: 5.31 % wt gain; VTI Desorp. (% wt loss 95 to 25% RH) [5, 12]: 5.23 % wt loss; VTI Adsorp. (% wt gain 25 to 95% RH) ([5]; repeated consecutive analysis (second line), listed as L-malate lot 1): 0.06 % wt gain; VTI Adsorp. (% wt gain 25 to 95% RH) ([5]; repeated consecutive analysis (second line), listed as L-malate lot 2): 0.07 % wt gain; moisture adsorbed more than other L-malate lots ([5]; from 25 to 95% relative humidity): > 5%; Solubility in Freebase Equivalents mgA/mL ([6]; pH 1): 0.08^b mgA/mL; Initial KF (% H2O) ([7]; listed as L-malate lot 1): 0.05 % H2O; Initial KF (% H2O) ([7]; listed as L-malate lot 2): 0.08 % H2O; Initial KF (% H2O) ([7]; listed as L-malate lot 3): 0.04 % H2O	Transnorsertraline L-Malate
		5.32	0.00	0.01	0.02	0.01	0.02	2.15 mgA/mL	0.24	4.58	1.28	6.75	0.02	approximately 4 hours	3 to 4	approximately 1.3 hours	~36	~19	approximately 12.5 hours	VTI adsorption, weight gain ([5]; second lot, from 25 to 95% relative humidity): 0.01%; VTI desorption, weight loss ([5]; second lot, from 95% to 25% relative humidity): 0.01%; Solubility in Freebase Equivalents mgA/mL [6]: 0.13 mgA/mL; induction time of form conversion ([8]; 0.1N HCl, 37° C., larger scale): 2 to 2.3 h; start of form conversion to hydrate [8, 19]: ~10 h; form conversion completed ([8]; water, 37° C.): 3 to 4 h; start of form conversion to hydrate ([8]; water, 37° C.): approximately 1.3 hours	transnorsertraline hydrochloride [HCl]
														3 to 4 h	3 to 4	approximately 1.3 hours	~36	~19	approximately 12.5 hours	impurities (HPLC) ([9]; 25° C./60% RH and 40° C./75% RH, at least 6 months): less than 0.05%; impurities (HPLC) ([9]; 25° C./60% relative humidity, 2 years): less than 0.1%; start of form conversion to hydrate ([8]; 0.1N HCl, 37° C.): ~2 h; start of form conversion to hydrate [8, 19]: approximately 10 hours; induction time before the beginning of the conversion to monohydrate ([8]; slurry in water, Raman peak ratio I(677)/I(695)): approximately 1.1 hour; end of the conversion to monohydrate ([8]; slurry in water, from the beginning of the slurry): approximately 2 hours; form conversion completed ([8]; water, 37° C.): 3 to 4 h; start of form conversion to hydrate ([8]; water, 37° C.): approximately 1.3 hours	transnorsertraline hydrochloride anhydrate
